Consider 16 compounds from patent publication US8106055B2, “Substituted amide compounds” (Gruenenthal GmbH, priority 2007, dated 2012).

Like-named read-outs stand apart in the source and are kept apart here.

Test [1] has as its target T1, bradykinin 1 receptor (B1R) of the rat (Rattus norvegicus, UniProt P97583).
T1 construct: expressed in transfected cells; host or cells: CHO K1 cells
T1 sequence (P97583 1-337): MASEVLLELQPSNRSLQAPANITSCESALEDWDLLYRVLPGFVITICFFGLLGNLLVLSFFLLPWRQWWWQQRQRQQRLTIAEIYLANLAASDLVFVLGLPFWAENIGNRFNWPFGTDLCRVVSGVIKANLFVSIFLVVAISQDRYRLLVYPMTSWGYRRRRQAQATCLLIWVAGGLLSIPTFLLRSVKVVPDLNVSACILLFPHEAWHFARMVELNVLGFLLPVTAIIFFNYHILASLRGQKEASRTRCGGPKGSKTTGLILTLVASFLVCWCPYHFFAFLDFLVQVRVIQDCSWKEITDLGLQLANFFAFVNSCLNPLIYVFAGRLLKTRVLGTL
The test is described as follows: Functional investigation on the rat bradykinin 1 receptor (B1R), Ca2+ FLIPR assay in CHO K1 rB1R cells. It is filed as cell-based. The settings on record: test substance 10 μM; for inhibition at 10 µM: CHO-K1, B1R antagonism rat, read-out: B1R Ant. r [10 μM] % Inhibition. The method in brief: (§1)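 Cells were dye-loaded with Fluo-4 plus probenecid, then test substances added and Ca2+ influx compared with agonist control for % activation. After 10-20 min, EC80 agonist (Lys-Des-Arg9-bradykinin human; Des-Arg9-bradykinin rat) was applied; suppression gave % inhibition and IC50 values.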

Test [2] has as its target T2, human bradykinin 1 receptor (B1R) (Homo sapiens, UniProt P46663).
T2 construct: expressed in transfected cells; host or cells: CHO K1 cells
T2 sequence (P46663 1-353): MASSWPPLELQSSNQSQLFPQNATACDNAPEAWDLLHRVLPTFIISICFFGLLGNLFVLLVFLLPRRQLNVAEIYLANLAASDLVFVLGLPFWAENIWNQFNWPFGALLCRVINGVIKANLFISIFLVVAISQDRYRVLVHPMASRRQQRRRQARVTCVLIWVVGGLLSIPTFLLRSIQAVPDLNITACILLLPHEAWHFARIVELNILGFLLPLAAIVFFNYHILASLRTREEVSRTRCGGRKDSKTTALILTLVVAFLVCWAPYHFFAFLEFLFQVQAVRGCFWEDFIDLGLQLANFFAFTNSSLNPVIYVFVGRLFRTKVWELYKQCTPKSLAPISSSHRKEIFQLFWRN
In words: Functional investigation on the human bradykinin 1 receptor (B1R), Ca2+ FLIPR assay in CHO K1 hB1R cells. Particulars: test substance 10 μM; for inhibition at 10 µM: CHO-K1, B1R antagonism human, read-out: B1R Ant. h [10 μM] % Inhibition. It is filed as cell-based. The essentials: as §1

Another test addresses T3, human μ opiate receptor (Homo sapiens, UniProt P35372).
T3 construct: purchased PerkinElmer Life Sciences, Zaventem, Belgium RB-HOM; host or cells: CHO-K1 cells (membrane preparation)
In words: Affinity for the human μ opiate receptor ([3H]-naloxone displacement, CHO-K1 receptor membrane preparation, SPA). It is filed as binding. The settings on record: test concentration 1 μM; for inhibition at 1 µM: 1.5 h. The method in brief:
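Scintillation proximity binding on human μ receptor membranes from CHO-K1 cells used 1 nmol/l [3H]-naloxone over 90 min at room temperature in 50 mmol/l Tris-HCl, 0.06% BSA. Percent inhibition was recorded at 1 μM.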

[3] abbreviates: Table 3, to be read in the same way as Table 1, read-out: μ.
Where [4] appears, read: % inhibition compared with the maximum achievable inhibition.

T3 sequence (P35372 whole entry): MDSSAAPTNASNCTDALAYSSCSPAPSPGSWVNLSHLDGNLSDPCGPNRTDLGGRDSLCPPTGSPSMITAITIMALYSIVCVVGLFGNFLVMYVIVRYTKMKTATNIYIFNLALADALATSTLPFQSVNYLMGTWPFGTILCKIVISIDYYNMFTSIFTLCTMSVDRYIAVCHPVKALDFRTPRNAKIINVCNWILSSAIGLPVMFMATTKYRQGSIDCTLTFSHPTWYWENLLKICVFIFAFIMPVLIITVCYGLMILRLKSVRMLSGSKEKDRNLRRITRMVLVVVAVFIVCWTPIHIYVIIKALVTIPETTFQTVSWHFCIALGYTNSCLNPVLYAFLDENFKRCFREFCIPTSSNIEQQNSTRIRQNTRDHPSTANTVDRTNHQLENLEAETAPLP

In the case of `O=C(COCC1CCCCN1S(=O)(=O)c1c(Cl)cc(Cl)cc1Cl)NCC1CCC(C(CCc2ccccc2)N2CCOCC2)CC1` (stereo not drawn) [Example 754, N-((4-(1-morpholino-3-phenylpropyl)cyclohexyl)methyl)-2-((1-(2,4,6-trichlorophenylsulfonyl)piperidin-2-yl)methoxy)acetamide], the inhibition at 10 µM in test [1] (Ca2+ FLIPR, CHO K1 rB1R cells) came out at 76%; in test [2] (Ca2+ FLIPR, CHO K1 hB1R cells), 47%. The inhibition at 1 µM on human μ opiate receptor (setting [3]) was 2%.
For `COc1cc(C)c(S(=O)(=O)N2CCCCC2COCC(=O)NCC2CCC(C(CCc3ccccc3)N3CCOCC3)CC2)c(C)c1` (stereo not drawn) [Example 753, 2-((1-(4-methoxy-2,6-dimethylphenylsulfonyl)piperidin-2-yl)methoxy)-N-((4-(1-morpholino-3-phenylpropyl)cyclohexyl)methyl)acetamide] the same measures were 103%, 104% and 17%.
Consider `COc1cc(C)c(S(=O)(=O)N2CCCC2COCC(=O)NC2CCC(C(CCc3ccccc3)N3CCOCC3)CC2)c(C)c1` (stereo not drawn) [Example 676, 2-((1-(4-methoxy-2,6-dimethylphenylsulfonyl)pyrrolidin-2-yl)methoxy)-N-(4-(1-morpholino-3-phenylpropyl)cyclohexyl)acetamide], for which the inhibition at 10 µM in test [1] (Ca2+ FLIPR, CHO K1 rB1R cells) came out at 106%; in test [2] (Ca2+ FLIPR, CHO K1 hB1R cells), 93%. For the same compound, the inhibition at 1 µM on human μ opiate receptor (setting [3]) is 10%.
On to `COc1cc(C)c(S(=O)(=O)N(C)CCOCC(=O)NC2CCC(C(c3ccccc3)N3CCOCC3)CC2)c(C)c1C` (stereo not drawn) [Example 619, 2-{2-[(4-methoxy-2,3,6-trimethylbenzenesulfonyl)-methylamino]-ethoxy}-N-[4-(morpholin-4-yl-phenylmethyl)-cyclohexyl]-acetamide], for which the inhibition at 10 µM turned out to be 12% in test [1] (Ca2+ FLIPR, CHO K1 rB1R cells) and 56% in test [2] (Ca2+ FLIPR, CHO K1 hB1R cells). Further, the inhibition at 1 µM on human μ opiate receptor (Table 2, read-out: μ receptor) was -11%.
Take `CN(CCOCC(=O)NCC1CCC(C(CCc2ccccc2)N2CCCC2)CC1)S(=O)(=O)c1c(Cl)cc(Cl)cc1Cl` (stereo not drawn) [Example 640, N-((4-(3-phenyl-1-(pyrrolidin-1-yl)propyl)cyclohexyl)methyl)-2-(2-(2,4,6-trichloro-N-methylphenylsulfonamido)ethoxy)acetamide]: the inhibition at 10 µM amounted to 63% in test [1] (Ca2+ FLIPR, CHO K1 rB1R cells) and 101% in test [2] (Ca2+ FLIPR, CHO K1 hB1R cells). In addition, at human μ opiate receptor (setting [3]), the inhibition at 1 µM was found to be 27%.
As to `CN1CCN(C(c2ccccc2)C2CCC(NC(=O)COC3CCN(S(=O)(=O)c4c(Cl)cc(Cl)cc4Cl)C3)CC2)CC1` (stereo not drawn) [Example 686, N-(4-((4-methylpiperazin-1-yl)(phenyl)methyl)cyclohexyl)-2-(1-(2,4,6-trichlorophenylsulfonyl)pyrrolidin-3-yloxy)acetamide], the inhibition at 10 µM in test [1] (Ca2+ FLIPR, CHO K1 rB1R cells) amounted to 29%; in test [2] (Ca2+ FLIPR, CHO K1 hB1R cells), 80%. Also, at human μ opiate receptor (setting [3]), the inhibition at 1 µM stood at 30%.
Take `O=C(COC1CCN(S(=O)(=O)c2c(Cl)cc(Cl)cc2Cl)C1)NC1CCC(C(CCc2ccccc2)N2CCOCC2)CC1` (stereo not drawn) [Example 666, N-(4-(1-morpholino-3-phenylpropyl)cyclohexyl)-2-(1-(2,4,6-trichlorophenylsulfonyl)pyrrolidin-3-yloxy)acetamide]: the inhibition at 10 µM in test [1] (Ca2+ FLIPR, CHO K1 rB1R cells) was determined as 5%; in test [2] (Ca2+ FLIPR, CHO K1 hB1R cells), 11%. For the same compound, the inhibition at 1 µM on human μ opiate receptor (setting [3]) stood at 6%.
In the case of `COc1cc(C)c(S(=O)(=O)N(C)CCOCC(=O)N2CCC(C(c3ccc(F)cc3)N3CCN(C)CC3)CC2)c(C)c1` (stereo not drawn) [Example 804, N-(2-(2-(4-((4-fluorophenyl)(4-methylpiperazin-1-yl)methyl)piperidin-1-yl)-2-oxoethoxy)ethyl)-4-methoxy-N,2,6-trimethylbenzenesulfonamide], the inhibition at 10 µM worked out at 100% in test [1] (setting [4]) and 105% in test [2] (setting [4]). The inhibition at 1 µM on human μ opiate receptor (setting [3]) stood at 9%.
For `O=C(COC1CCN(S(=O)(=O)c2c(Cl)cc(Cl)cc2Cl)C1)NC1CCC(C(c2ccccc2)N2CCOCC2)CC1` (stereo not drawn) [Example 685, N-(4-(morpholin(phenyl)methyl)cyclohexyl)-2-(1-(2,4,6-trichlorophenylsulfonyl)pyrrolidin-3-yloxy)acetamide], the “B1R Ant. r [10 μM] % Inhibition” value in test [1] (B1R antagonism rat, Ca2+ FLIPR, CHO K1 rB1R cells) is on record as 18%. Further, the “B1R Ant. h [10 μM] % Inhibition” value in test [2] (B1R antagonism human, Ca2+ FLIPR, CHO K1 hB1R cells) was determined as 13%. On human μ opiate receptor (Table 3, to be read in the same way as Table 1), this compound had a μ of 3 % inhibition.
Regarding `CN(CCOCC(=O)NCC1CCC(C(c2ccccc2)N2CCCC2)CC1)S(=O)(=O)c1ccc(Cl)cc1Cl` (stereo not drawn) [Example 641, 2-(2-(2,4-dichloro-N-methylphenylsulfonamido)ethoxy)-N-((4-(phenyl(pyrrolidin-1-yl)methyl)cyclohexyl)methyl)acetamide], the inhibition at 10 µM was determined as 45% in test [1] (Ca2+ FLIPR, CHO K1 rB1R cells) and 96% in test [2] (Ca2+ FLIPR, CHO K1 hB1R cells). The inhibition at 1 µM on human μ opiate receptor (setting [3]) was found to be 66%.
`O=C(COCC1CCCCN1S(=O)(=O)c1c(Cl)cc(Cl)cc1Cl)NCC1CCC(C(CCc2ccccc2)N2CCCC2)CC1` (stereo not drawn) [Example 755, N-((4-(3-phenyl-1-(pyrrolidin-1-yl)propyl)cyclohexyl)methyl)-2-((1-(2,4,6-trichlorophenylsulfonyl)piperidin-2-yl)methoxy)acetamide]: the inhibition at 10 µM was 102% in test [1] (Ca2+ FLIPR, CHO K1 rB1R cells) and 103% in test [2] (Ca2+ FLIPR, CHO K1 hB1R cells). Moreover, the inhibition at 1 µM at human μ opiate receptor (setting [3]) came to 62%.
`CN(CCOCC(=O)NCC1CCC(C(CCc2ccccc2)N2CCCC2)CC1)S(=O)(=O)c1ccc(Cl)cc1Cl` (stereo not drawn) [Example 717, 2-(2-(2,4-dichloro-N-methylphenylsulfonamido)ethoxy)-N-((4-(3-phenyl-1-(pyrrolidin-1-yl)propyl)cyclohexyl)methyl)acetamide]: the inhibition at 10 µM in test [1] (Ca2+ FLIPR, CHO K1 rB1R cells) amounted to 88%; in test [2] (Ca2+ FLIPR, CHO K1 hB1R cells) it was 100%. Also, the inhibition at 1 µM on human μ opiate receptor (setting [3]) was 22%.
As for `COc1cc(C)c(S(=O)(=O)N2CCCCC2COCC(=O)N2CCC(C(c3ccccc3)N3CCN(C)CC3)CC2)c(C)c1` (stereo not drawn) [Example 807, 2-((1-(4-methoxy-2,6-dimethylphenylsulfonyl)piperidin-2-yl)methoxy)-1-(4-((4-methylpiperazin-1-yl)(phenyl)methyl)piperidin-1-yl)ethanone], the inhibition at 10 µM in test [1] (setting [4]) is 98%; in test [2] (setting [4]) it was 105%. On human μ opiate receptor (setting [3]), the inhibition at 1 µM was found to be 11%.
For `COc1cc(C)c(S(=O)(=O)N2CCCC(OCC(=O)NC3CCC(C(c4ccccc4)N4CCOCC4)CC3)C2)c(C)c1` (stereo not drawn) [Example 693, 2-(1-(4-methoxy-2,6-dimethylphenylsulfonyl)piperidin-3-yloxy)-N-(4-(morpholino(phenyl)methyl)cyclohexyl)acetamide], the inhibition at 10 µM turned out to be 50% in test [1] (Ca2+ FLIPR, CHO K1 rB1R cells) and 26% in test [2] (Ca2+ FLIPR, CHO K1 hB1R cells). For the same compound, the inhibition at 1 µM on human μ opiate receptor (setting [3]) is 9%.
The like results for `CN1CCN(C(c2ccccc2)C2CCC(NC(=O)COCC3CCCN(S(=O)(=O)c4c(Cl)cc(Cl)cc4Cl)C3)CC2)CC1` (stereo not drawn) [Example 742, N-(4-((4-methylpiperazin-1-yl)(phenyl)methyl)cyclohexyl)-2-((1-(2,4,6-trichlorophenylsulfonyl)piperidin-3-yl)methoxy)acetamide] were, in that order, 53%, 36% and 29%.
In the case of `O=C(COC1CCN(S(=O)(=O)c2c(Cl)cc(Cl)cc2Cl)C1)NC1CCC(C(CCc2ccccc2)N2CCCCC2)CC1` (stereo not drawn) [Example 667, N-(4-(3-phenyl-1-(piperidin-1-yl)propyl)cyclohexyl)-2-(1-(2,4,6-trichlorophenylsulfonyl)pyrrolidin-3-yloxy)acetamide], the inhibition at 10 µM in test [1] (Ca2+ FLIPR, CHO K1 rB1R cells) was 17%; in test [2] (Ca2+ FLIPR, CHO K1 hB1R cells), 57%. Moreover, on human μ opiate receptor (setting [3]), the inhibition at 1 µM was found to be 32%.
